# Measurements: ChEMBL document CHEMBL1201862, “PubChem BioAssay data set” (2004)
#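 48-hour exposure; five concentrations; linearly interpolated endpoints. Abbreviation: GI50, concentration required for 50% inhibition of growth.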 The source made the active and inactive calls. Cut-off read from the data, not from the text of the source: active = GI50 up to about 1.1 µM and inactive = higher.
# How the values were obtained:
# Test in all cases: DTP human tumour cell line panel, 48 h
# [1] = test system: NCI-H522
# [2] = test system: SNB-78
# [3] = test system: DMS-114
# [4] = test system: LXFL 529
# [5] = test system: A498
# [6] = test system: UO-31
# [7] = test system: COLO 205
# [8] = test system: SF-539
# [9] = test system: SR
# [10] = test system: SNB-75
# [11] = test system: M14
# [12] = test system: DMS-273
# [13] = test system: OVCAR-3
# [14] = test system: OVCAR-4
# [15] = test system: MOLT-4
# [16] = test system: HCT-15
# [17] = test system: M19-MEL
# [18] = test system: HOP-18
# [19] = test system: MDA-MB-435
# [20] = test system: NCI/ADR-RES
Structure (SMILES),GI50 [1],GI50 [2],GI50 [3],GI50 [4],GI50 [5],GI50 [6],GI50 [7],GI50 [8],GI50 [9],GI50 [10],GI50 [11],GI50 [12],GI50 [13],GI50 [14],GI50 [15],GI50 [16],GI50 [17],GI50 [18],GI50 [19],GI50 [20]
Cc1cc(C)nc(NS(=O)(=O)c2ccc(Nc3c4ccccc4nc4c(C(=O)Nc5ccc(S(=O)(=O)Nc6cc(C)on6)cc5)cccc34)cc2)n1,14.7 µM (inactive),30.9 µM (inactive),19.1 µM (inactive),17.9 µM (inactive),19.2 µM (inactive),26.4 µM (inactive),17.7 µM (inactive),16 µM (inactive),27.5 µM (inactive),32.3 µM (inactive),20.8 µM (inactive),23.8 µM (inactive),17.7 µM (inactive),22.6 µM (inactive),24.8 µM (inactive),> 100 µM,23.4 µM (inactive),20.4 µM (inactive),,
COc1cccc2c1C(=O)c1c(O)c3c(c(O)c1C2=O)C[C@@](O)(C(C)=O)CC3S(=O)(=O)O (some centres not stated),> 100 µM (inactive),> 94.2 µM (inactive),> 100 µM (inactive),> 100 µM (inactive),> 100 µM (inactive),> 100 µM (inactive),> 100 µM (inactive),> 100 µM (inactive),> 84.1 µM (inactive),> 50.5 µM (inactive),> 100 µM (inactive),> 100 µM (inactive),> 100 µM (inactive),> 100 µM (inactive),> 100 µM (inactive),> 100 µM,> 100 µM (inactive),> 100 µM (inactive),,
NC1=NN(c2ccccc2)C(=O)C1C(=O)C(=O)Nc1ccc(Cl)cc1 (configuration not stated),> 100 µM (inactive),> 100 µM (inactive),> 100 µM (inactive),> 100 µM (inactive),> 100 µM (inactive),> 100 µM (inactive),> 100 µM (inactive),> 100 µM (inactive),> 100 µM (inactive),> 100 µM (inactive),> 100 µM (inactive),> 100 µM (inactive),> 100 µM (inactive),> 100 µM (inactive),> 100 µM (inactive),> 100 µM,> 100 µM (inactive),> 100 µM (inactive),,
CC(C)[C@@H](C)CC[C@@H](C)C1CC=C2[C@@H]3CCC4C[C@@H](O[Si](C)(C)C(C)(C)C)CC[C@]4(C)C3CC[C@@]21C (some centres not stated),> 100 µM (inactive),> 100 µM (inactive),> 100 µM (inactive),> 100 µM (inactive),> 100 µM (inactive),> 100 µM (inactive),> 100 µM (inactive),> 100 µM (inactive),> 100 µM (inactive),> 100 µM (inactive),> 100 µM (inactive),> 100 µM (inactive),> 100 µM (inactive),> 100 µM (inactive),> 100 µM (inactive),> 100 µM,> 100 µM (inactive),> 100 µM (inactive),,
CC(C)c1cccc2sc(NC(=O)C(=O)C(C#N)c3cccc4ccccc34)nc12 (configuration not stated),54.1 µM (inactive),93.1 µM (inactive),40.4 µM (inactive),73.1 µM (inactive),73.3 µM (inactive),31.4 µM (inactive),> 100 µM (inactive),20.7 µM (inactive),32.4 µM (inactive),23.4 µM (inactive),> 100 µM (inactive),90.4 µM (inactive),41.7 µM (inactive),29.8 µM (inactive),23.1 µM (inactive),75.5 µM,91.4 µM (inactive),61.2 µM (inactive),,
CCOC(=O)C(CC(C)C)NC(=O)C(Cc1ccc(N(CCCl)CCCl)cc1)NC(C)=O (configuration not stated),1.57 µM (inactive),3.93 µM (inactive),0.849 µM (active),12.4 µM (inactive),15.7 µM (inactive),8.02 µM (inactive),3.7 µM (inactive),2.18 µM (inactive),,5.96 µM (inactive),2.7 µM (inactive),4.47 µM (inactive),4.56 µM (inactive),8.89 µM (inactive),,9.71 µM,3.84 µM (inactive),14 µM (inactive),3.41 µM (inactive),18.1 µM (inactive)
N#CC(Nc1cccc(C(F)(F)F)c1)c1ccccc1C(F)(F)F (configuration not stated),6.71 µM (inactive),20.1 µM (inactive),8.91 µM (inactive),6.17 µM (inactive),19.1 µM (inactive),17.9 µM (inactive),3.26 µM (inactive),18.4 µM (inactive),4.82 µM (inactive),18.3 µM (inactive),7.29 µM (inactive),8.04 µM (inactive),6.52 µM (inactive),5.58 µM (inactive),14.6 µM (inactive),7 µM,7.23 µM (inactive),13.5 µM (inactive),,
CC1=CCC2(C#N)CCC1C2O (configuration not stated),> 100 µM (inactive),> 100 µM (inactive),> 100 µM (inactive),> 100 µM (inactive),> 100 µM (inactive),> 100 µM (inactive),> 100 µM (inactive),> 100 µM (inactive),> 100 µM (inactive),> 100 µM (inactive),> 100 µM (inactive),19.7 µM (inactive),> 100 µM (inactive),> 100 µM (inactive),> 100 µM (inactive),> 100 µM,> 100 µM (inactive),> 100 µM (inactive),,
CCCCCCCCCCCCCCCCCCC1=C(O)C(=O)C=C(OC)C1=O,28.4 µM (inactive),71.9 µM (inactive),21.7 µM (inactive),29.6 µM (inactive),> 100 µM (inactive),85.5 µM (inactive),48.5 µM (inactive),45.1 µM (inactive),43.8 µM (inactive),30.6 µM (inactive),53.2 µM (inactive),55.2 µM (inactive),41.8 µM (inactive),46.7 µM (inactive),21.1 µM (inactive),29.5 µM,39.1 µM (inactive),43 µM (inactive),,
